According to US12655156B2, “Oxadiazolopyrazines and oxadiazolopyridines useful as mitochondrial uncouplers” (Virginia Tech Intellectual Properties, Inc., priority 2018, dated 2026):
pEC50: −log10 of the molar value.

System: whole cells (NMuLi, C2C12, and L6 cells, isolated cardiomyocytes, human primary fibroblasts)
Assay: Oxygen consumption rate (OCR) in whole cells, Seahorse XF-24 Flux Analyzer
Assay type: cell-based
Details: increase in OCR; binned EC50 values
Description: Biological activities of the compounds synthesized is determined by determining increase in oxygen consumption rate (OCR).
Oxygen consumption rate (OCR) in whole cells is measured in general accordance with the method of Kenwood B M et al. (Mol. Met. (2014) 3:114-123).
OCR is measured using a Seahorse XF-24 Flux Analyzer (Seahorse Biosciences, North Billerica, MA). NMuLi, C2C12, and L6 cells are seeded in a Seahorse 24-well tissue culture plate at a density of 3.5×10^4 cells/well, isolated cardiomyocytes at a density of 4×10^4 cells/well, and human primary fibroblasts at a density of 1.1×10^4 cells/well. The cells are then allowed to adhere for 24 h. Prior to the assay, the media is changed to unbuffered DMEM containing pyruvate and glutamine (Gibco #12800-017, pH=7.4 at 37° C.) and the cells are equilibrated for 30 mins at 37°° C. Compounds are injected during the assay and OCR is measured using 2 min measurement periods.
2-3 wells are used per condition and averaged over three plates (n=6-9). Statistical significance is determined by two-way ANOVA with Bonferroni's posttest.
Activities are reported as binned EC50 values: A=5 μM or less; B=>5 to 20 μM; C=over 20 μM; NA=not active.

Row | SMILES | pEC50
1 | Oc1nc2nonc2nc1Nc1ccccc1F [1-3, 6-((2-Fluorophenyl)amino)-[1,2,5]oxadiazolo[3,4-b]pyrazin-5-ol] | 4.70 to 5.30
2 | Oc1nc2nonc2nc1Nc1cccc(F)c1 [1-4, 6-((3-Fluorophenyl)amino)-[1,2,5]oxadiazolo[3,4-b]pyrazin-5-ol] | < 4.70
3 | Oc1nc2nonc2nc1Nc1ccc(F)cc1 [1-5, 6-((4-Fluorophenyl)amino)-[1,2,5]oxadiazolo[3,4-b]pyrazin-5-ol] | < 4.70
4 | Oc1nc2nonc2nc1Nc1ccccc1C(F)(F)F [1-6, 6-((2-(Trifluoromethyl)phenyl)amino)-[1,2,5]oxadiazolo[3,4-b]pyrazin-5-ol] | 4.70 to 5.30
5 | Oc1nc2nonc2nc1Nc1ccc(C(F)(F)F)cc1 [1-7, 6-((4-(Trifluoromethyl)phenyl)amino)-[1,2,5]oxadiazolo[3,4-b]pyrazin-5-ol] | 4.70 to 5.30
6 | Oc1nc2nonc2nc1Nc1ccccc1OC(F)(F)F [1-8, 6-((2-(Trifluoromethoxy)phenyl)amino)-[1,2,5]oxadiazolo[3,4-b]pyrazin-5-ol] | ≥ 5.30
7 | Oc1nc2nonc2nc1Nc1cccc(OC(F)(F)F)c1 [1-9, 6-((3-(Trifluoromethoxy)phenyl)amino)-[1,2,5]oxadiazolo[3,4-b]pyrazin-5-ol] | ≥ 5.30
8 | Oc1nc2nonc2nc1Nc1ccc(OC(F)(F)F)cc1 [1-10, 6-((4-(Trifluoromethoxy)phenyl)amino)-[1,2,5]oxadiazolo[3,4-b]pyrazin-5-ol] | 4.70 to 5.30
9 | Oc1nc2nonc2nc1Nc1ccc(OC(F)(F)F)c(F)c1 [1-11, 6-((3-Fluoro-4-(trifluoromethoxy)phenyl)amino)-[1,2,5]oxadiazolo[3,4-b]pyrazin-5-ol] | ≥ 5.30
10 | Cc1ccc(C(F)(F)F)cc1Nc1nc2nonc2nc1O [1-12, 6-((2-Methyl-5-(trifluoromethyl)phenyl)amino)-[1,2,5]oxadiazolo[3,4-b]pyrazin-5-ol] | 4.70 to 5.30
11 | Oc1nc2nonc2nc1Nc1cccc(F)c1F [1-14, 6-((2,3-Difluorophenyl)amino)-[1,2,5]oxadiazolo[3,4-b]pyrazin-5-ol] | 4.70 to 5.30
12 | Oc1nc2nonc2nc1Nc1cc(F)cc(F)c1 [1-15, 6-((3,5-Difluorophenyl)amino)-[1,2,5]oxadiazolo[3,4-b]pyrazin-5-ol] | 4.70 to 5.30
13 | Oc1nc2nonc2nc1Nc1ccc(C(F)(F)F)cc1F [1-16, 6-((2-Fluoro-4-(trifluoromethyl)phenyl)amino)-[1,2,5]oxadiazolo[3,4-b]pyrazin-5-ol] | ≥ 5.30
14 | Oc1nc2nonc2nc1Nc1cc(C(F)(F)F)ccc1F [1-17, 6-((2-Fluoro-5-(trifluoromethyl)phenyl)amino)-[1,2,5]oxadiazolo[3,4-b]pyrazin-5-ol] | 4.70 to 5.30
15 | Oc1nc2nonc2nc1Nc1cccc(I)c1 [1-18, 6-((3-Iodophenyl)amino)-[1,2,5]oxadiazolo[3,4-b]pyrazin-5-ol] | 4.70 to 5.30
16 | Oc1nc2nonc2nc1Nc1ccc(I)cc1 [1-19, 6-((4-Iodophenyl)amino)-[1,2,5]oxadiazolo[3,4-b]pyrazin-5-ol] | 4.70 to 5.30
17 | Oc1nc2nonc2nc1Nc1ccccc1Cl [1-20, 6-((2-Chlorophenyl)amino)-[1,2,5]oxadiazolo[3,4-b]pyrazin-5-ol] | 4.70 to 5.30
18 | Oc1nc2nonc2nc1Nc1ccc(Cl)cc1 [1-21, 6-((4-Chlorophenyl)amino)-[1,2,5]oxadiazolo[3,4-b]pyrazin-5-ol] | 4.70 to 5.30
19 | COc1cc(OC(F)(F)F)ccc1Nc1nc2nonc2nc1O [1-22, 6-((2-Methoxy-4-(trifluoromethoxy)phenyl)amino)-[1,2,5]oxadiazolo[3,4-b]pyrazin-5-ol] | ≥ 5.30
20 | Oc1nc2nonc2nc1Nc1ccc(OC(F)(F)F)c(Cl)c1 [1-24, 6-((3-Chloro-4-(trifluoromethoxy)phenyl)amino)-[1,2,5]oxadiazolo[3,4-b]pyrazin-5-ol] | ≥ 5.30
21 | Oc1nc2nonc2nc1Nc1ccc(SC(F)(F)F)cc1 [1-25, 6-((4-((Trifluoromethyl)thio)phenyl)amino)-[1,2,5]oxadiazolo[3,4-b]pyrazin-5-ol] | ≥ 5.30
